Assay results published in ChEMBL document CHEMBL1153495, “A highly sensitive probe detecting low pH area of HeLa cells based on rhodamine B modified beta-cyclodextrins” (Bioorg Med Chem, 2009).
Active and inactive are the calls of the source. The calls are words filed in the database; no cut-off is given here.

What was measured:
[1] = system: HeLa; assay: Cytotoxicity against human HeLa cells up to 1000 uM after 48 hrs by MTT assay; assay type: functional, cell-based
[2] = system: Jurkat; assay: Cytotoxicity against human Jurkat cells at 1000 uM after 48 hrs by MTT assay; assay type: functional, cell-based
[3] = system: HeLa; assay: Drug uptake in human HeLa cells assessed as staining capability after 5 hrs by fluorescence microscopy; assay type: ADME, cell-based

Structure (SMILES) | Activity [1] | other results
NCCNC[C@H]1O[C@@H]2O[C@H]3[C@H](O)[C@@H](O)[C@@H](O[C@@H]4[C@@H](O)[C@H](O)[C@H](O[C@@H]5[C@@H](O)[C@H](O)[C@H](O[C@@H]6[C@@H](O)[C@H](O)[C@H](O[C@@H]7[C@@H](O)[C@H](O)[C@H](O[C@H]8[C@H](O)[C@@H](O)[C@@H](O[C@H]1[C@H](O)[C@H]2O)O[C@@H]8CO)O[C@H]7CO)O[C@H]6CO)O[C@H]5CO)O[C@H]4CO)O[C@@H]3CO | inactive | 
OC[C@H]1O[C@@H]2O[C@H]3[C@H](O)[C@@H](O)[C@@H](O[C@H]4[C@H](O)[C@@H](O)[C@@H](O[C@H]5[C@H](O)[C@@H](O)[C@@H](O[C@H]6[C@H](O)[C@@H](O)[C@@H](O[C@H]7[C@H](O)[C@@H](O)[C@@H](O[C@H]8[C@H](O)[C@@H](O)[C@@H](O[C@H]1[C@H](O)[C@H]2O)O[C@@H]8CO)O[C@@H]7CO)O[C@@H]6CO)O[C@@H]5CO)O[C@@H]4CO)O[C@@H]3CO | inactive | 
NCCNCCNCCNCCNC[C@H]1O[C@@H]2O[C@H]3[C@H](O)[C@@H](O)[C@@H](O[C@@H]4[C@@H](O)[C@H](O)[C@H](O[C@@H]5[C@@H](O)[C@H](O)[C@H](O[C@@H]6[C@@H](O)[C@H](O)[C@H](O[C@@H]7[C@@H](O)[C@H](O)[C@H](O[C@H]8[C@H](O)[C@@H](O)[C@@H](O[C@H]1[C@H](O)[C@H]2O)O[C@@H]8CO)O[C@H]7CO)O[C@H]6CO)O[C@H]5CO)O[C@H]4CO)O[C@@H]3CO | inactive | Activity [2]: Active
CCN(CC)c1ccc2c(-c3ccccc3C(=O)NCCNCCNCCNCCNC[C@H]3O[C@@H]4O[C@H]5[C@H](O)[C@@H](O)[C@@H](O[C@@H]6[C@@H](O)[C@H](O)[C@H](O[C@@H]7[C@@H](O)[C@H](O)[C@H](O[C@@H]8[C@@H](O)[C@H](O)[C@H](O[C@@H]9[C@@H](O)[C@H](O)[C@H](O[C@H]%10[C@H](O)[C@@H](O)[C@@H](O[C@H]3[C@H](O)[C@H]4O)O[C@@H]%10CO)O[C@H]9CO)O[C@H]8CO)O[C@H]7CO)O[C@H]6CO)O[C@@H]5CO)c3ccc(=[N+](CC)CC)cc-3oc2c1.[Cl-] |  | Drug uptake [3]: 66.6 µM
CCN(CC)c1ccc2c(-c3ccccc3C(=O)O)c3ccc(=[N+](CC)CC)cc-3oc2c1 [RHODAMINE B] |  | Activity [3]: Not Active
